# Measured values as given in patent publication US12178791B2, “Haloallylamine sulfone derivative inhibitors of lysyl oxidases and uses thereof” (Syntara Limited, priority 2018, dated 2024).
# Counter-ions that a name gives are not always drawn.
# Legend:
# Assay type in all cases: biochemical
# [1] = target: Bovine LOX (Bos taurus (Bovine), UniProt P33072); experiment: LOX inhibition, Amplex Red oxidation assay; settings: 30 min preincubation at 37 °C, putrescine substrate
# Text: Lysyl oxidase (LOX) is an extracellular copper dependent enzyme which oxidizes peptidyl lysine and hydroxylysine residues in collagen and lysine residues in elastin to produce peptidyl alpha-aminoadipic-delta-semialdehydes. […] There are five LOX family members; these are LOX, LOXL1, LOXL2, LOXL3 and LOXL4. LOX and LOXL family members can be acquired as recombinant active proteins from commercial sources, or extracted from animal tissues like bovine aorta, tendons, pig skin; or prepared from cell cultures. The inhibitory effects of the compounds of the present invention were tested against the given LOX-LOXL preparation using a method based on the detection of hydrogen peroxide with an Amplex Red oxidation assay (Zhou et al. A stable nonfluorescent derivative of resorufin for the fluorometric determination of trace hydrogen peroxide: applications in detecting the activity of phagocyte NADPH oxidase and other oxidases. Anal. Biochem. 1997; 253, 162-168). The assay was developed using either 384 or 96 well format. Briefly, in a standard black, clear bottom 384 well plate assay 25 μL of a dilution of any of the isoenzymes and orthologues in 1.2 M urea, 50 mM sodium borate buffer (pH 8.2) were added into each well in the presence of 1 μM mofegiline and 0.5 mM pargyline (to inhibit SSAO and MAO-B and MAO-A, respectively; not necessary if the enzyme is from a recombinant or purified form). […] Twenty five μL of a reaction mixture containing twice the KM concentration of putrescine (Sigma Aldrich, e.g. 20 mM for LOX, or 10 mM for LOXL2 and LOXL3), 120 μM Amplex Red (Sigma Aldrich) and 1.5 U/mL horseradish peroxidase (Sigma Aldrich) prepared in 1.2 M urea, 50 mM sodium borate buffer (pH 8.2) were then added to the corresponding wells. The above volumes were doubled in the case of 96 wells plate. The fluorescence (RFU) was read every 2.5 min for 30 min at […] 37° C., excitation 565 nm and emission 590 (Optima; BMG labtech). The slope of the kinetics for each well was calculated using MARS data analysis software (BMG labtech) and this value was used to deduce the IC50 value (Dotmatics).
# [2] = target: T1, LOXL2 (Homo sapiens (Human), UniProt Q9Y4K0); experiment: LOXL2 inhibition, Amplex Red oxidation assay; settings: 30 min preincubation at 37 °C, putrescine substrate
# Text: Lysyl oxidase (LOX) is an extracellular copper dependent enzyme which oxidizes peptidyl lysine and hydroxylysine residues in collagen and lysine residues in elastin to produce peptidyl alpha-aminoadipic-delta-semialdehydes. […] There are five LOX family members; these are LOX, LOXL1, LOXL2, LOXL3 and LOXL4. LOX and LOXL family members can be acquired as recombinant active proteins from commercial sources, or extracted from animal tissues like bovine aorta, tendons, pig skin; or prepared from cell cultures. The inhibitory effects of the compounds of the present invention were tested against the given LOX-LOXL preparation using a method based on the detection of hydrogen peroxide with an Amplex Red oxidation assay (Zhou et al. A stable nonfluorescent derivative of resorufin for the fluorometric determination of trace hydrogen peroxide: applications in detecting the activity of phagocyte NADPH oxidase and other oxidases. Anal. Biochem. 1997; 253, 162-168). The assay was developed using either 384 or 96 well format. Briefly, in a standard black, clear bottom 384 well plate assay 25 μL of a dilution of any of the isoenzymes and orthologues in 1.2 M urea, 50 mM sodium borate buffer (pH 8.2) were added into each well in the presence of 1 μM mofegiline and 0.5 mM pargyline (to inhibit SSAO and MAO-B and MAO-A, respectively; not necessary if the enzyme is from a recombinant or purified form). Test compounds were dissolved in DMSO and tested in a Concentration Response Curve (CRC) with 11 data points, typically in the micromolar or nanomolar range after incubation with the enzyme for 30 min at 37° C. Twenty five μL of a reaction mixture containing twice the KM concentration of putrescine (Sigma Aldrich, e.g. 20 mM for LOX, or 10 mM for LOXL2 and LOXL3), 120 μM Amplex Red (Sigma Aldrich) and 1.5 U/mL horseradish peroxidase (Sigma Aldrich) prepared in 1.2 M urea, 50 mM sodium borate buffer (pH 8.2) were then added to the corresponding wells. The above volumes were doubled in the case of 96 wells plate. The fluorescence (RFU) was read every 2.5 min for 30 min at […] 37° C., excitation 565 nm and emission 590 (Optima; BMG labtech). The slope of the kinetics for each well was calculated using MARS data analysis software (BMG labtech) and this value was used to deduce the IC50 value (Dotmatics).
# [3] = target: LOXL1 (Homo sapiens (Human), UniProt Q08397); experiment: Jump dilution experiment, sustained inhibition of LOXL1; settings: jump dilution after 40 min at 37 °C with 10× or 30× IC50; vs non-inhibited controls;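 also: 30× IC50 used only where needed so inhibitor exceeds enzyme concentration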
# Experimental: (§1) Jump Dilution experiment: The assay was developed using a 96 well format and the starting enzyme concentration was set 100 times higher than for the inhibition studies. […] After the incubation, the mixture was diluted 50× in assay buffer, followed by a further 2× dilution in Amplex Red-horseradish peroxidase-putrescine reaction mix (same as per the inhibition studies) prior to the fluorescent measurement. Results were expressed in % recovery of the signal after a specified time by comparison with non-inhibited controls.
# [4] = target: T1, LOXL2; experiment: Jump dilution experiment, sustained inhibition of LOXL2; settings: jump dilution after 40 min at 37 °C with 10× or 30× IC50; vs non-inhibited controls;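 also: 30× IC50 used only where needed so inhibitor exceeds enzyme concentration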
# Experimental: as §1
# [5] = target: Human recombinant SSAO/VAP-1 (Homo sapiens (Human), UniProt Q16853); experiment: Inhibition of human recombinant SSAO/VAP-1; settings: 30 min preincubation at 37 °C, benzylamine 600 μM; read-out: SSAO/VAP-1 Activity IC50
# Experimental: Human recombinant SSAO/VAP-1 amine oxidase activity was determined using the coupled colorimetric method as described for monoamine oxidase, copper-containing amine oxidases and related enzymes (Holt A. and Palcic M., A peroxidase-coupled continuous absorbance plate-reader assay for flavin monoamine oxidases, copper-containing amine oxidases and related enzymes. Nat Protoc 2006; 1: 2498-2505). Briefly, a cloned cDNA template corresponding to residues 34-763 of human SSAO/VAP-1, and incorporating a mouse Ig kappa (κ) signal sequence, N-terminal flag epitope tag and tobacco etch virus (TEV) cleavage site, was assembled in a mammalian expression vector (pLO-CMV) by Geneart AG. This vector containing human SSAO/VAP-1 residues was transfected into CHO-Kl glycosylation mutant cell line, Lec 8. A clone stably expressing human SSAO/VAP-1 was isolated and cultured in large scale. Active human SSAO/VAP-1 was purified and recovered using immunoaffinity chromatography. This was used as the source for SSAO/VAP-1 activity. A high-throughput colorimetric assay was developed using either 96 or 384 well format. Briefly, in a standard 96 well plate assay 50 μL of purified human SSAO/VAP-1 (0.25 μg/mL) in 0.1 M sodium phosphate buffer (pH 7.4) was added into each well. Test compounds were dissolved in DMSO and tested in a Concentration Response Curve (CRC) with 4-11 data points, typically in the micromolar or nanomolar range after incubation with human SSAO/VAP-1 for 30 min at 37° C. After 30 min incubation, 50 μL of the reaction mixture containing 600 μM benzylamine (Sigma Aldrich), 120 μM Amplex Red (Sigma Aldrich) and 1.5 U/mL horseradish peroxidase (Sigma Aldrich) prepared in 0.1 M sodium phosphate buffer (pH 7.4) were added to the corresponding well. The fluorescence unit (RFU) was read every 2.5 min for 30 min at 37° C. excitation 565 nm and emission 590 (Optima; BMG labtech). The slope of the kinetics for each well was calculated using MARS data analysis software (BMG labtech) and this value was used to deduce the IC50 value (Dotmatics).
# [6] = target: Recombinant human MAO-B (Homo sapiens (Human), UniProt P27338); experiment: Inhibition of human recombinant MAO-B; settings: benzylamine 100 μM
# Experimental: The specificity of the compounds of this invention was tested by determining their ability to inhibit MAO-B activities in vitro. Recombinant human MAO-B (0.06 mg/mL; Sigma Aldrich) was used as source of MAO-B enzyme activities. The assay was performed in a similar way as for human SSAO/VAP-1 (Example 28) except, the substrate benzylamine was used at 100 μM.
# T1 sequence (Q9Y4K0 26-774): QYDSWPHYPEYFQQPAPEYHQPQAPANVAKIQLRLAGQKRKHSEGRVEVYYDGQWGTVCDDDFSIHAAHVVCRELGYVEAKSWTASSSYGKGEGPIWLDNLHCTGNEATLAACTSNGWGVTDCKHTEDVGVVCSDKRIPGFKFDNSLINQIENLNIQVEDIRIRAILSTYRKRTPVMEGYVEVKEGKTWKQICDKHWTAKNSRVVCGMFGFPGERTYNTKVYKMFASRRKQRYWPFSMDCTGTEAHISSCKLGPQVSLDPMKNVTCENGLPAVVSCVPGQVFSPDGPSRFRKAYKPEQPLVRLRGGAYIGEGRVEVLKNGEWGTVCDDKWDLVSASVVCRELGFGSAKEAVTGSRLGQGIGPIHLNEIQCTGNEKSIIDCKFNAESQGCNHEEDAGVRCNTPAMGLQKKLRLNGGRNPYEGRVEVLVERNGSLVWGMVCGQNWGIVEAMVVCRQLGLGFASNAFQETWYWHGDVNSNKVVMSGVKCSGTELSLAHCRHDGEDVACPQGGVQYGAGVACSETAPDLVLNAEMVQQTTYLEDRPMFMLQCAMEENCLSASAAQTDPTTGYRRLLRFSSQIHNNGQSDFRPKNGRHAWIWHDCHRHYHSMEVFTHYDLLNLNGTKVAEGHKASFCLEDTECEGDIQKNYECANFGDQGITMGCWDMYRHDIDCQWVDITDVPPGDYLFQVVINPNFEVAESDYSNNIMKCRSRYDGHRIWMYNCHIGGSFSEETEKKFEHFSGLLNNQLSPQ
# Recombinant human MAO-B, sequence (P27338 whole entry): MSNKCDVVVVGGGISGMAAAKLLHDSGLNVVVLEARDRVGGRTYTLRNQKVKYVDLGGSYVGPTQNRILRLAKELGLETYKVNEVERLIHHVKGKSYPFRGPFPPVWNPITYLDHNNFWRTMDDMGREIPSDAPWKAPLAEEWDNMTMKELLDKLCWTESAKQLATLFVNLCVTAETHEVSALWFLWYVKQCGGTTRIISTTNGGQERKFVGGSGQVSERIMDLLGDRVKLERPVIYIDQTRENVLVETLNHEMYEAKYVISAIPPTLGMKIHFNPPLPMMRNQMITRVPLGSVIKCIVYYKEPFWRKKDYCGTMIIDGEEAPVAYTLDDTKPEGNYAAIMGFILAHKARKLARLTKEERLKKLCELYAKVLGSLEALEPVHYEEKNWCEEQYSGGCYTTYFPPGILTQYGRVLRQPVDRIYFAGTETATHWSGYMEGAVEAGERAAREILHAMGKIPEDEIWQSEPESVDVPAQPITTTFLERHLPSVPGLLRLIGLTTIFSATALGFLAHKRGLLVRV
# LOXL1, sequence (Q08397 96-574, species assumed): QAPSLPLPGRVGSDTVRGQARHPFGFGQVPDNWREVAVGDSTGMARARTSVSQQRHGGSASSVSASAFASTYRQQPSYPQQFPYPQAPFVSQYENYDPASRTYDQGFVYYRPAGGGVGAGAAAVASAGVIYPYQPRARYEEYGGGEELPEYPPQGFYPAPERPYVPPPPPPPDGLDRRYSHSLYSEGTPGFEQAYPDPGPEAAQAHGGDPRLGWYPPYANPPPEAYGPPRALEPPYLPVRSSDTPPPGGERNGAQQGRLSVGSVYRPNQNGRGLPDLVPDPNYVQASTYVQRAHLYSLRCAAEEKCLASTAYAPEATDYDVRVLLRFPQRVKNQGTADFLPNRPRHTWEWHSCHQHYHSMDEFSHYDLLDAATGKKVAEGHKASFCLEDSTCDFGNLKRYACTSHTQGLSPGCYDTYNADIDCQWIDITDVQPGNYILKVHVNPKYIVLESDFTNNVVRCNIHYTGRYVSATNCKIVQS
# Human recombinant SSAO/VAP-1, sequence (Q16853 34-763): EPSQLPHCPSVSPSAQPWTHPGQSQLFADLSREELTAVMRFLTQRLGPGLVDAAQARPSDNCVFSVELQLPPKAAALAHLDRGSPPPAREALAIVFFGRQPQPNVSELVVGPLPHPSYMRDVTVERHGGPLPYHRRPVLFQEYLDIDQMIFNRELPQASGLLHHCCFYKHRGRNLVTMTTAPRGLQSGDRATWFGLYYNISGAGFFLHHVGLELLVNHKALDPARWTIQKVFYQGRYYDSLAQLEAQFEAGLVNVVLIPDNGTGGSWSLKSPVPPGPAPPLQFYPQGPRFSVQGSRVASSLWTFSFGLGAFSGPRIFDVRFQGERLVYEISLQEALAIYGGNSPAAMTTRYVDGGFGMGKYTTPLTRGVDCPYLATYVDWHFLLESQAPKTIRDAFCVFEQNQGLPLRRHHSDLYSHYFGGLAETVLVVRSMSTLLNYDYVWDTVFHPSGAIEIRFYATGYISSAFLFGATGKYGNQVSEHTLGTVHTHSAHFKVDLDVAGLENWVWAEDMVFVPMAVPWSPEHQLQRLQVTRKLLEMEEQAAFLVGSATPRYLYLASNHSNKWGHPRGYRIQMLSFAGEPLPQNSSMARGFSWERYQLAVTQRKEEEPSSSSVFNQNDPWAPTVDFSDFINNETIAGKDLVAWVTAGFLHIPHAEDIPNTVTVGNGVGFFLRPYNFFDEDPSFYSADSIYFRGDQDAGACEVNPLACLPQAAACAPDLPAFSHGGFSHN
# Bovine LOX, sequence (P33072 170-418): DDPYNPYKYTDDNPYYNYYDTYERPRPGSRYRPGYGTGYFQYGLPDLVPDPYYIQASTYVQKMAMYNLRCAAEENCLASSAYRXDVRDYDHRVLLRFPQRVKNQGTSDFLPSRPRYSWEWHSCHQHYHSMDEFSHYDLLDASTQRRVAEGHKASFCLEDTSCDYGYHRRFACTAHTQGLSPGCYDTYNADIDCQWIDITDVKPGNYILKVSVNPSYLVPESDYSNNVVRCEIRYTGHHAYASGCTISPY
SMILES,IC50 [1] [µM],IC50 [2] [nM],LOXL1 - Recovery of activity. (%) [3] [%],LOXL2 - Recovery of activity. (%) [4] [%],IC50 [5] [µM],IC50 [6] [µM]
"NC/C=C(\F)CS(=O)(=O)c1ccc(C(=O)NC23CC4CC(CC(C4)C2)C3)cc1 [Compound 4, N-(adamantan-1-yl)-4-(((Z)-4-amino-2-fluorobut-2-en-1-yl)sulfonyl)benzamide hydrochloride]",< 10,< 10000,16.7,21.2,> 30,< 10
"CN(C)S(=O)(=O)c1ccc(COc2ccccc2S(=O)(=O)C/C(F)=C/CN)cc1 [Compound 5, (Z)-4-((2-((4-amino-2-fluorobut-2-en-1-yl)sulfonyl)phenoxy)methyl)-N,N-dimethylbenzenesulfonamide hydrochloride]",< 1,< 1000,3.6,10.0,> 30,> 30
"CN(C)S(=O)(=O)c1ccc(Oc2ccccc2S(=O)(=O)C/C(F)=C/CN)cc1 [Compound 6, (Z)-4-(2-((4-amino-2-fluorobut-2-en-1-yl)sulfonyl)phenoxy)-N,N-dimethylbenzenesulfonamide hydrochloride]",< 10,< 1000,2.5,10.4,> 30,> 30
"CN(C)S(=O)(=O)c1ccc(COc2cccc(S(=O)(=O)C/C(F)=C/CN)c2)cc1 [Compound 9, (Z)-4-((3-((4-amino-2-fluorobut-2-en-1-yl)sulfonyl)phenoxy)methyl)-N,N-dimethylbenzenesulfonamide hydrochloride]",< 1,< 1000,4.4,15.1,> 30,< 10
"CN(C)S(=O)(=O)c1ccc(COc2ccc(S(=O)(=O)C/C(F)=C/CN)cc2)cc1 [Compound 10, (Z)-4-((4-((4-amino-2-fluorobut-2-en-1-yl)sulfonyl)phenoxy)methyl)-N,N-dimethylbenzenesulfonamide hydrochloride]",< 10,< 10000,–,15.2,> 30,> 30
"NC/C=C(\F)CS(=O)(=O)c1ccccc1C(=O)NC12CC3CC(CC(C3)C1)C2 [Compound 12, N-(adamantan-1-yl)-2-(((Z)-4-amino-2-fluorobut-2-en-1-yl)sulfonyl)benzamide hydrochloride]",< 10,< 1000,2.6,9.3,> 30,> 30
"NC/C=C(\F)CS(=O)(=O)c1cccc(C(=O)NC23CC4CC(CC(C4)C2)C3)c1 [Compound 13, N-(adamantan-1-yl)-3-(((Z)-4-amino-2-fluorobut-2-en-1-yl)sulfonyl)benzamide hydrochloride]",< 10,< 10000,3.5,8.9,> 30,< 10
"CN(C)S(=O)(=O)c1ccc(Oc2cccc(S(=O)(=O)C/C(F)=C/CN)c2)cc1 [Compound 16, (Z)-4-(3-(4-amino-2-fluorobut-2-enylsulfonyl)phenoxy)-N,N-dimethylbenzenesulfonamide hydrochloride]",< 1,< 1000,–,14.4,–,–
"CN(C)S(=O)(=O)c1cccc(Oc2cccc(S(=O)(=O)C/C(F)=C/CN)c2)c1 [Compound 17, (Z)-3-(3-(4-amino-2-fluorobut-2-enylsulfonyl)phenoxy)-N,N-dimethylbenzenesulfonamide hydrochloride]",< 10,< 1000,–,5.3,–,–
"CN(C)S(=O)(=O)c1cccc(Oc2ccccc2S(=O)(=O)C/C(F)=C/CN)c1 [Compound 18, (Z)-3-(2-(4-amino-2-fluorobut-2-enylsulfonyl)phenoxy)-N,N-dimethylbenzenesulfonamide hydrochloride]",< 1,< 1000,–,6.9,–,–
